# T1: c-Abl kinase domain (Mus musculus, UniProt P00520)
# T1 sequence (P00520 242-493 limits assumed): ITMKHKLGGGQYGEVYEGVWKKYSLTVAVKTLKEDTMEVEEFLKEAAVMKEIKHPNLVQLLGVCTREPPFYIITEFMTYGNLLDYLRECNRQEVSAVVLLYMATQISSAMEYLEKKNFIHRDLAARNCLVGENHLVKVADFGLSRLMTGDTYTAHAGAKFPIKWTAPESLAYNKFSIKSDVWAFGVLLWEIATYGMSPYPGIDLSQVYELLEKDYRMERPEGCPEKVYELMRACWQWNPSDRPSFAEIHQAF
# What was measured:
# c-Abl kinase domain [1] = molecular target: T1, c-Abl kinase domain; test: ADP-Quest continuous fluorimetric kinase assay (Michaelis-Menten parameters and initial rates); type: biochemical; conditions: c-Abl kinase domain 10 nM, 100 μM ATP, 37 °C, three to five replicates, error = standard error of global Michaelis-Menten fit
# Description: A fluorescence-based assay from Eurofins (ADP Quest) was used to measure the Michaelis-Menten kinetic parameters for phosphorylation of the consensus peptides by purified tyrosine kinase domains. In this assay, ADP production as a result of kinase activity is coupled to the production of resorufin, a fluorophore that emits signal at 590 nm. For all experiments, the assay reactions were set up as described in the provided assay kit protocol, in a 384 well plate format. The peptide solutions were serially diluted in 100 mM Tris, pH 8.0, and the kinases were diluted to 50 nM in buffer (10 mM HEPES, 100 mM NaCl, 1 mM TCEP, 5 mM MgCl2, 10% (v/v) glycerol). The final reaction mixtures contained 10 nM of kinase with 100 μM of ATP. […] Phosphorylation reaction progress was monitored by measuring fluorescence at excitation 530 nm and emission 590 nm every 2 min at 37 °C on a plate reader (BioTek Synergy Neo 2). The fluorescence units (RFU) were converted to μM ADP by comparison to a standard curve, and the initial rates were extracted from the linear regime of the reaction progress curves. Initial rates were also measured for samples containing each kinase but lacking a peptide substrate, to account for background ATP hydrolysis. This background rate was subtracted from the rates measured in the presence of peptide. […]
# c-Src kinase domain = c-Src kinase domain (Homo sapiens, UniProt P12931); test: pTyr-Var library bacterial peptide display kinase screen (enrichment scores); type: biochemical;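 for c-Src hit?: Hit requires p below 0.05 and at least twofold variant vs reference change plus filters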
# Fyn kinase domain [2] = test: as above; type: biochemical, human
# Hck kinase domain = test: as above; type: biochemical, human
# c-Abl kinase domain [3] = molecular target: T1, c-Abl kinase domain; test: as above; type: biochemical
# Jak2 = test: as above; type: biochemical, human
# AncSZ kinase domain = test: as above; type: biochemical;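 for AncSZ hit?: Hit requires p below 0.05 and at least twofold variant vs reference change plus filters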
# Fer kinase domain = test: as above; type: biochemical, mouse
# Fes = test: as above; type: biochemical
# FGFR1 kinase domain [4] = test: as above; type: biochemical, human
# FGFR3 kinase domain = test: as above; type: biochemical, human
# EPHB1 kinase domain = test: as above; type: biochemical, human
# EPHB2 kinase domain = test: as above; type: biochemical, human
# MERTK kinase domain = test: as above; type: biochemical, human
# c-Src SH2 domain = c-Src SH2 domain (Homo sapiens, UniProt P12931); test: pTyr-Var library SH2 domain screen with SH2-dynabeads (enrichment scores); conditions: sheet c-Src
# SHP2 C-SH2 domain = test: as above
# Grb2 SH2 domain = test: as above
# FGFR1 kinase domain [5] = test: LC-MS assay of intact SHP2 protein phosphorylation; type: biochemical, human; conditions: SHP2 10 μM, kinase 1 μM, 1 hr, 37 °C, 2 to 3 measurements
# Experimental: (§1) The same protocol used to express and purify SH2 domains, excluding co-expression of BirA and addition of biotin, was applied to the expression and purification of the SHP2 variants.
# (§2) To pre-activate the kinases, 1 μM of each purified kinase domain was preincubated at 37 °C for 30 min in the same buffer conditions used in the kinase domain peptide display screen, with 1 mM ATP. The reaction of the kinase with SHP2 was initiated with the addition of 10 μM SHP2, and the mixture was incubated in 37 °C for 1 hr. To terminate the reaction, the mixture was quenched with 200 mM EDTA. The reaction mixture was diluted 3:2 in water and injected onto a BEH C8 column (Waters) on a UPLC-MS system (Xevo QToF, Waters). Reverse-phase liquid chromatography was carried out at 0.3 mL/min with solvents A (H2O, 0.1% (v/v) formic acid) and B (acetonitrile, 0.1% (v/v) formic acid). Proteins were eluted over a gradient of 5–95% B for 8.5 min. The protein peak on the chromatogram was deconvoluted using the MaxEnt1 algorithm from 32,000–65,000 Da with a resolution of 1 Da/channel over 30 iterations. Peaks were chosen according to the theoretical MW of the protein within a range of 5 Da, and integrated for the signal intensity.
# Fyn kinase domain [6] = test: LC-MS assay of intact SHP2 protein phosphorylation; type: biochemical, human; conditions: SHP2 10 μM, kinase 1 μM, 1 hr, 37 °C, 2 to 3 measurements
# Experimental: as §1, §2
# [7] = mean of log2 of enrichment over R1-R4
# [8] = pTyr-Var library, enrichment score, replicate 1
# [9] = pTyr-Var library, enrichment score, replicate 3
# [10] = pTyr-Var library, enrichment score, replicate 4
# [11] = variant versus reference peptide
# [12] = variant versus reference peptide, significant hit TRUE/FALSE
# [13] = mean of log2(variant) minus mean of log2(reference)
# [14] = mean of log2 enrichment of variant peptide, n = 5
# [15] = mean of log2 enrichment of variant peptide, n = 4
# 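Throughout, for Fyn hit?: Hit requires p below 0.05 and at least twofold variant vs reference change plus filters.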
# 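Throughout, for c-Abl hit?: Hit requires p below 0.05 and at least twofold variant vs reference change plus filters.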
molecule,measurement,setting,value
"Ac-GAPEVIYATPGAKKKG-NH2 [AblTide (2014), previously reported c-Abl consensus substrate]",Km,c-Abl kinase domain [1],35 ± 8 µM
same,kcat,c-Abl kinase domain [1],2.5±0.2 s^–1
DRVALYVAREG [AACS_Y117_I118V],c-Src mean of log2(enrichment),c-Src kinase domain; [7],-1.464
same,c-Src enrich. R1,c-Src kinase domain; [8],0.3697
same,c-Src enrich. R3,c-Src kinase domain; [9],0.2802
same,c-Src enrich. R4,c-Src kinase domain; [10],0.4218
same,c-Src difference (mean log2 variant - mean log2 reference),c-Src kinase domain; [11],-0.2397
same,c-Src hit?,c-Src kinase domain; [12],FALSE
same,Fyn mean of log2(enrichment),Fyn kinase domain [2]; [7],-1.274
same,Fyn enrich. R1,Fyn kinase domain [2]; [8],0.7923
same,Fyn enrich. R3,Fyn kinase domain [2]; [9],0.2683
same,Fyn enrich. R4,Fyn kinase domain [2]; [10],0.2456
same,Fyn difference (mean log2 variant - mean log2 reference),Fyn kinase domain [2]; [11],0.04124
same,Fyn hit?,Fyn kinase domain [2]; [12],FALSE
same,Hck mean of log2(enrichment),"Hck kinase domain; mean of log2(variant) / mean of log2(reference), R1-R4",0.6801
same,Hck enrich. R1,Hck kinase domain; [8],1.248
same,Hck enrich. R3,Hck kinase domain; [9],0.3794
same,Hck enrich. R4,Hck kinase domain; [10],0.204
same,Hck difference (variant - reference),Hck kinase domain; [11],0.1112
same,Hck hit?,Hck kinase domain; [12],FALSE
same,c-Abl mean of log2(enrichment),c-Abl kinase domain [3]; [7],-0.7858
same,c-Abl enrich. R1,c-Abl kinase domain [3]; [8],0.555
same,c-Abl enrich. R3,c-Abl kinase domain [3]; [9],0.7635
same,c-Abl enrich. R4,c-Abl kinase domain [3]; [10],0.4657
same,c-Abl hit?,c-Abl kinase domain [3]; [12],FALSE
same,Jak2 mean of log2(enrichment),Jak2; mean of log2 of enrichment over R1-R3,-0.2901
same,Jak2 enrich. R1,Jak2; [8],0.73
same,Jak2 enrich. R3,Jak2; [9],0.9423
same,Jak2 difference (mean log2 variant - mean log2 reference),Jak2; [11],-0.3116
same,Jak2 hit?,Jak2; [12],FALSE
same,AncSZ mean of log2(enrichment),AncSZ kinase domain; mean of log2 of enrichment over R1-R5,-0.4041
same,AncSZ enrich. R1,AncSZ kinase domain; [8],1.153
same,AncSZ enrich. R3,AncSZ kinase domain; [9],0.7411
same,AncSZ enrich. R4,AncSZ kinase domain; [10],0.5554
same,AncSZ enrich. R5,"AncSZ kinase domain; pTyr-Var library, enrichment score, replicate 5",0.4897
same,AncSZ difference (mean log2 variant - mean log2 reference),AncSZ kinase domain; [11],-0.326
same,AncSZ hit?,AncSZ kinase domain; [12],FALSE
same,Fer mean of log2(enrichment),Fer kinase domain; [7],-1.031
same,Fer enrich. R1,Fer kinase domain; [8],0.6342
same,Fer enrich. R3,Fer kinase domain; [9],0.3786
same,Fer enrich. R4,Fer kinase domain; [10],0.4545
same,Fer difference (mean log2 variant - mean log2 reference),Fer kinase domain; [11],0.05113
same,Fer hit?,Fer kinase domain; [12],FALSE
same,Fes mean of log2(enrichment),Fes; mean of log2 of enrichment over R1-R6,-0.04177
same,Fes difference (mean log2 variant - mean log2 reference),Fes; [11],-0.2234
same,difference,FGFR1 kinase domain [4]; [13],-0.08555
same,mean of log2(variant),FGFR1 kinase domain [4]; [14],-1.047
same,difference,FGFR3 kinase domain; [13],-0.06288
same,mean of log2(variant),FGFR3 kinase domain; [14],-0.601
same,difference,EPHB1 kinase domain; [13],-0.2676
same,mean of log2(variant),EPHB1 kinase domain; [15],-0.8888
same,difference,EPHB2 kinase domain; [13],0.3459
same,mean of log2(variant),EPHB2 kinase domain; [15],-0.6512
same,difference,MERTK kinase domain; [13],-0.4526
same,mean of log2(variant),MERTK kinase domain; [15],-1.84
same,difference,c-Src SH2 domain; [13],-0.4301
same,mean of log2(variant),"c-Src SH2 domain; mean of log2 enrichment of variant peptide, R1-R3",-1.56
same,difference,"SHP2 C-SH2 domain; SHP2-C SH2, mean of log2(variant) minus mean of log2(reference)",-0.5364
same,mean of log2(variant),"SHP2 C-SH2 domain; SHP2-C SH2, mean of log2 enrichment of variant, R1-R3",-0.6877
same,hit?,"SHP2 C-SH2 domain; SHP2-C SH2, variant versus reference significant hit call",FALSE
same,difference,"Grb2 SH2 domain; Grb2 SH2, mean of log2(variant) minus mean of log2(reference)",-0.1132
same,mean of log2(variant),"Grb2 SH2 domain; Grb2 SH2, mean of log2 enrichment of variant, R1-R3",-0.29
same,hit?,"Grb2 SH2 domain; Grb2 SH2, variant versus reference significant hit call",FALSE
"SHP2 D61V: human full-length SHP2 (residues 1–526; C459E, D61V) (protein, UniProt Q06124 2-593, looked up, variant C459E D61V) Tyrosine-protein phosphatase …: TSRRWFHPNITGVEAENLLLTRGVDGSFLARPSKSNPGDFTLSVRRNGAVTHIKIQNTGVYYDLYGGEKFATLAELVQYYMEHHGQLKEKNGDVIELKYPLNCADPTSERWFHGHLSGKEAEKLLTEKGKHGSFLVRESQSHPGDFVLSVRTGDDKGESNDGKSKVTHVMIRCQELKYDVGGGERFDSLTDLVEHYKKNPMVETLGTVLQLKQPLNTTRINAAEIESRVRELSKLAETTDKVKQGFWEEFETLQQQECKLLYSRKEGQRQENKNKNRYKNILPFDHTRVVLHDGDPNEPVSDYINANIIMPEFETKCNNSKPKKSYIATQGCLQNTVNDFWRMVFQENSRVIVMTTKEVERGKSKCVKYWPDEYALKEYGVMRVRNVKESAAHDYTLRELKLSKVGQGNTERTVWQYHFRTWPDHGVPSDPGGVLDFLEEVHHKQESIMDAGPVVVHESAGIGRTGTFIVIDILIDIIREKGVDCDIDVPKTIQMVRSQRSGMVQTEAQYRFIYMAVQHYIETLQRRIEEEQKSKRKGHEYTNIKYSLADQTSGDQSPLPPCTPTPPCAEMREDSARVYENVGLMQQQKSFR",phosphorylation of intact SHP2 by FGFR1,FGFR1 kinase domain [5],dramatically enhanced phosphorylation
same,phosphorylation of intact SHP2 by Fyn,Fyn kinase domain [6],dramatically enhanced phosphorylation

# From paper PMC10065799, “High-throughput profiling of sequence recognition by tyrosine kinases and SH2 domains using bacterial peptide display” (eLife, 2023)
